Some test systems named below: NCI-H226 lung; SR leukemia; SF-295 CNS; OVCAR-4 ovarian; MALME-3M melanoma; SN12C renal; A549 NSCLC; MDA-MB-231 breast; SK-MEL-5 melanoma; SK-MEL-28 melanoma.
What all share (assay): NCI tumour cell line growth inhibition, 48 h

Values joined by “and” are separate entries in the source; they are usually repeats but may differ in a detail not shown here. Equal values may be shown once.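 Growth conditions: 96-well plates. Treatment: test compound, 48 hours, 5 concentrations. Analysis: linear interpolation between bracketing concentrations; unreached endpoints set to highest concentration. GI50: concentration for 50% inhibition of growth. TGI marks complete inhibition of growth.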

As to `O=C1CSC(=S)N1/N=C/c1ccc(Cl)c([N+](=O)[O-])c1`, the TGI is > 100 µM in the assay on NCI-H226 lung; > 100 µM with SR leukemia; 68.5 µM in the assay with SF-295 CNS; 50.7 µM in the assay on OVCAR-4 ovarian; 40.4 µM in the assay on MALME-3M melanoma; 56.3 µM in the assay with SN12C renal. Moreover, the TGI in the assay with A549 NSCLC was > 100 µM; in the assay on MDA-MB-231 breast, 48 µM; in the assay on SK-MEL-5 melanoma, > 100 µM; with SK-MEL-28 melanoma it was 62.1 µM.
In the case of `Br[Se]c1ccccn1`, the TGI in the assay on NCI-H226 lung was 36.8 µM; in the assay on SR leukemia it was 65.8 µM; in the assay with SF-295 CNS, 17 µM; in the assay on OVCAR-4 ovarian, 30.9 µM; in the assay on MALME-3M melanoma, 31.2 µM; in the assay on SN12C renal, 33.1 µM. The TGI in the assay with A549 NSCLC was 44.3 µM; with MDA-MB-231 breast, 31.5 µM; with SK-MEL-5 melanoma, 28.9 µM; in the assay on SK-MEL-28 melanoma it was 37.5 µM.
For the molecule `Fc1cc(-c2nnc3n2N=C(c2ccc(Cl)cc2)CS3)c(Cl)cc1Cl`, the GI50 is 17.8 µM in the assay on NCI-H226 lung; 0.49 µM with SR leukemia; 17 µM with SF-295 CNS; 7.91 µM in the assay with OVCAR-4 ovarian; 2.75 µM in the assay with MALME-3M melanoma; 3.85 µM with SN12C renal. For the same molecule, the GI50 in the assay on A549 NSCLC is 18.7 µM; in the assay with MDA-MB-231 breast, 6.57 µM; in the assay on SK-MEL-5 melanoma, 3.91 µM; with SK-MEL-28 melanoma, 7.56 µM. The TGI in the assay on NCI-H226 lung is 40.6 µM; in the assay on SR leukemia, > 100 µM; with SF-295 CNS, 34.7 µM; in the assay with OVCAR-4 ovarian, 32.8 µM; with MALME-3M melanoma, 10.5 µM; with SN12C renal it was 16.8 µM. For the same molecule, the TGI was found to be 41.8 µM with A549 NSCLC, 18.2 µM with MDA-MB-231 breast, 15 µM with SK-MEL-5 melanoma and 34.8 µM in the assay on SK-MEL-28 melanoma.
Regarding `CCOc1ccc(NC2=CC(=O)C(=O)c3ccccc32)cc1`, the TGI was determined as 13.3 µM with NCI-H226 lung; 17.6 µM in the assay with SR leukemia; 5.4 µM with SF-295 CNS; 7.8 µM in the assay on OVCAR-4 ovarian; 3.56 µM in the assay on MALME-3M melanoma; 3.31 µM in the assay on SN12C renal. The TGI in the assay on A549 NSCLC was 7.65 µM; in the assay on MDA-MB-231 breast, 54.5 µM; in the assay with SK-MEL-5 melanoma, 2.95 µM; in the assay with SK-MEL-28 melanoma it was 7.22 µM.
Regarding `COc1cc(-c2nn(-c3cccc(NC(=O)c4ccccc4)c3)cc2-c2ccncc2)ccc1Cl`, the GI50 was 3.3 µM with NCI-H226 lung; 0.25 µM in the assay with SR leukemia; 0.315 µM in the assay on SF-295 CNS; 1.11 µM in the assay on OVCAR-4 ovarian; 0.344 µM in the assay on MALME-3M melanoma; 1.45 µM in the assay with SN12C renal. Further, the GI50 is 0.496 µM with A549 NSCLC, 1.06 µM in the assay on MDA-MB-231 breast, 0.259 µM in the assay on SK-MEL-5 melanoma and 3.26 µM with SK-MEL-28 melanoma. Moreover, the TGI with NCI-H226 lung is > 100 µM; with SR leukemia it was > 100 µM; with SF-295 CNS it was 1.44 µM; in the assay with OVCAR-4 ovarian, > 100 µM; in the assay on SN12C renal it was > 100 µM; in the assay with A549 NSCLC, > 60.6 µM. For the same molecule, the figures for the TGI in the assay on MDA-MB-231 breast, in the assay on SK-MEL-5 melanoma and in the assay on SK-MEL-28 melanoma were > 36.9 µM, 0.945 µM and > 100 µM, respectively.
Turning to `O=C1c2ccccc2C(=O)c2c(/C=C\N3CCCCC3)ccnc21`, the TGI came to 8.31 µM in the assay on NCI-H226 lung; 35.9 µM in the assay on SR leukemia; 5.25 µM with SF-295 CNS; 28.4 µM in the assay with OVCAR-4 ovarian; 1.67 µM in the assay with MALME-3M melanoma; 4.14 µM in the assay on SN12C renal. In addition, the TGI in the assay on A549 NSCLC was determined as 5.84 µM; in the assay with MDA-MB-231 breast, 73.3 µM; with SK-MEL-5 melanoma, 1.1 µM; in the assay with SK-MEL-28 melanoma, 2.96 µM.
With `C=CC(=O)Nc1cc(Nc2nccc(-c3cn(C)c4ccccc34)n2)c(OC)cc1N(C)CCN(C)C`, the GI50 in the assay with NCI-H226 lung was 3.93 µM and 1.39 µM; in the assay on SR leukemia, 1.29 µM and 1.62 µM; in the assay with SF-295 CNS it was 2.76 µM and 2.02 µM; with OVCAR-4 ovarian, 2.74 µM and 2.42 µM; in the assay on MALME-3M melanoma, 2.16 µM and 1.71 µM; with SN12C renal, 2.2 µM and 1.2 µM. Moreover, the GI50 in the assay with A549 NSCLC is 1.4 µM and 1.29 µM; in the assay on MDA-MB-231 breast, 1.59 µM and 1.7 µM; in the assay on SK-MEL-5 melanoma it was 1.72 µM; with SK-MEL-28 melanoma it was 1.63 µM and 1.62 µM. Besides, the TGI in the assay on NCI-H226 lung was 13.1 µM and 3.4 µM; with SR leukemia, 4.94 µM and 3.77 µM; in the assay on SF-295 CNS, 8.31 µM and 4.61 µM; with OVCAR-4 ovarian, 20.5 µM and > 10 µM; with MALME-3M melanoma, 3.97 µM and 3.28 µM; in the assay on SN12C renal, 8.58 µM and 4.36 µM. The TGI in the assay with A549 NSCLC is 4.17 µM and 3.87 µM; in the assay with MDA-MB-231 breast it was 3.45 µM and 3.6 µM; in the assay on SK-MEL-5 melanoma it was 3.13 µM; in the assay with SK-MEL-28 melanoma, 3.07 µM and 3.12 µM.
On to `CN(C)c1ccc(/C=N/NC(=S)Nc2ccccc2)cc1`, for which the TGI in the assay on NCI-H226 lung, in the assay on SR leukemia, in the assay on SF-295 CNS, in the assay with OVCAR-4 ovarian, with MALME-3M melanoma and with SN12C renal was > 100 µM in each case. In addition, the TGI with A549 NSCLC, with MDA-MB-231 breast, in the assay with SK-MEL-5 melanoma and with SK-MEL-28 melanoma was > 100 µM each time.
Consider `NC(=S)N/N=C\c1nccc2c(C(F)(F)F)cccc12`, for which the GI50 in the assay on NCI-H226 lung was 0.259 µM; in the assay on SR leukemia it was 0.0997 µM; in the assay with SF-295 CNS, 0.341 µM; in the assay on OVCAR-4 ovarian, 0.162 µM; with MALME-3M melanoma it was 0.435 µM; with SN12C renal it was 0.31 µM. For the same molecule, the GI50 in the assay on A549 NSCLC was 0.293 µM; in the assay on MDA-MB-231 breast, 0.281 µM; in the assay on SK-MEL-5 melanoma, 0.183 µM; with SK-MEL-28 melanoma, 0.57 µM. Moreover, the TGI in the assay on NCI-H226 lung was 2.39 µM; in the assay with SR leukemia, > 37 µM; in the assay on SF-295 CNS, 10.3 µM; in the assay with OVCAR-4 ovarian, 24.8 µM; in the assay with MALME-3M melanoma, > 34.5 µM; with SN12C renal, 12.4 µM. For the same molecule, the TGI in the assay with A549 NSCLC stood at 3.26 µM; in the assay with MDA-MB-231 breast it was 17.6 µM; in the assay with SK-MEL-5 melanoma, 0.921 µM; in the assay on SK-MEL-28 melanoma, 12.7 µM.
In the case of `CC[C@@H](c1ccc(O)c(O)c1)[C@@H](CC)c1ccc(O)c(O)c1`, the GI50 was 21.1 µM with NCI-H226 lung; 4.17 µM in the assay with SR leukemia; 27.4 µM in the assay with SF-295 CNS; 4.6 µM in the assay with OVCAR-4 ovarian; 3.91 µM with MALME-3M melanoma; 19.3 µM in the assay on SN12C renal. Besides, the GI50 was 31.9 µM in the assay on A549 NSCLC, 12 µM in the assay on MDA-MB-231 breast, 13.6 µM with SK-MEL-5 melanoma and 19.1 µM with SK-MEL-28 melanoma. The TGI was 44 µM in the assay on NCI-H226 lung; > 100 µM with SR leukemia; 87 µM in the assay on SF-295 CNS; 39.3 µM with OVCAR-4 ovarian; 19.8 µM in the assay on MALME-3M melanoma; 41.3 µM in the assay on SN12C renal. For the same molecule, the TGI in the assay with A549 NSCLC is > 100 µM; with MDA-MB-231 breast it was 29.1 µM; with SK-MEL-5 melanoma, 28.9 µM; with SK-MEL-28 melanoma it was 44.6 µM.

Source of the values: PubChem BioAssay (NCI).
